# Columns and labels:
# [1] = Maximum solubility of GHB as a function of pH of the aqueous medium; format: physicochemical
# Protocol: It will be understood that the maximum solubility of GHB is affected by the pH of the aqueous medium. For example, at about pH 4, the maximum amount of Na•GHB that can be dissolved is about 450 mg/ml.
# [2] = Chemical stability of GHB as a function of pH (GBL formation); settings: aqueous GHB compositions
SMILES,"minimal pH that will dissolve 750 mg/ml GHB ([1]; 750 mg/ml GHB, aqueous medium)",pH at which GBL begins to form [2],maximum amount that can be dissolved ([1]; aqueous medium at about pH 4)
"O=C(O)CCCO [GHB, gamma-hydroxybutyrate]",~6.8,≤ 6,
"O=C([O-])CCCO.[Na+] [Na•GHB, sodium gamma-hydroxybutyrate]",,,about 450 mg/ml

# Reference: patent publication US10675258B2, “Method of using gamma-hydroxybutyrate compositions for the treatment of disorders” (Jazz Pharmaceuticals Ireland Limited, priority 2012, dated 2020)
